From publication PMC10056443, “Derivatives of Amaryllidaceae Alkaloid Ambelline as Selective Inhibitors of Hepatic Stage of Plasmodium berghei Infection In Vitro” (Pharmaceutics, 2023)
Where two headings read alike, the source gives them in different places.

Legend:
[1] = system: hepatic stage of P. berghei; assay: In vitro activity against P. berghei hepatic stages (luciferase-expressing sporozoites in Huh-7 cells, bioluminescence); assay type: cell-based, Plasmodium berghei; conditions: Plasmodium berghei; for activity at 1 µM / activity at 10 µM: Huh-7, 48 h, DMSO = 100, read-out: INFECTION Ø screening
Outline: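 Huh-7 hepatoma cells pretreated with compounds 1 h, then infected with luciferase-expressing P. berghei sporozoites (1 × 10^4/well, 1:1 ratio) and incubated at 37 °C.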

Huh-7 cell line = assay: Huh-7 cell confluency by alamarBlue assay during hepatic-stage test; assay type: cell-based; conditions: human, 46 h, pH 7
Outline: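 Huh-7 human hepatoma cells pre-treated with compound in infection medium 1 h before luciferase-expressing P. berghei sporozoites were added (1:1, 1 × 10^4 per well), then incubated 46 h at 37 °C, 5% CO2. Confluency assessed indirectly by alamarBlue; IC50 from nonlinear-regression fit of normalized dose-response curves.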

[2] = system: P. falciparum NF54 ring-stage synchronized cultures; assay: In vitro activity against P. falciparum blood stages (flow cytometry, SYBR green I); assay type: cell-based, Plasmodium falciparum; conditions: Control = 7.76333, 48 h
Procedure: Activity against the blood stage of P. falciparum infection was assessed by flow cytometry analysis following the incubation of either test compounds or the drug vehicle (DMSO) with ring-stage synchronized parasite cultures, as previously described. Stock solutions of the test compounds, as well as of the positive control compound chloroquine, were prepared in DMSO and diluted to test concentrations in complete malaria culture medium (CMCM), i.e., 1640 RPMI medium supplemented with 25 mM HEPES, 2.4 mM L-glutamine, 50 µg/mL gentamicin, 0.5% w/v Albumax, 11 mM glucose, 1.47 mM hypoxanthine, and 37.3 mM NaHCO3. Samples at tested concentration were then incubated with ring-stage synchronized cultures of P. falciparum NF54 at 2.5% hematocrit and at approximately 1% parasitemia in 96-well plates at 37 °C in a 5% CO2 and 5% O2 atmosphere. Forty-eight hours post incubation, parasite load was assessed by flow cytometry, upon staining with the DNA-specific dye SYBR green I. Approximately 100,000 events were analyzed in each flow cytometry measurement.

[3] = Cytotoxicity assessment in vitro (MTT assay); assay type: cell-based; conditions: human
Procedure: (§1) HepG2 cells of human hepatocellular carcinoma (ATCC HB-8065; passage 20–25), purchased from Health Protection Agency Culture Collections (ECACC, Salisbury, UK), were cultured in Minimum Essential Medium Eagle supplemented with 10% v/v fetal bovine serum and 1% v/v L-glutamine solution (Sigma-Aldrich, St. Louis, MO, USA) at 37 °C in a humidified atmosphere containing 5% CO2. For passaging, the cells were treated with trypsin/EDTA (Sigma-Aldrich, St. Louis, MO, USA) at 37 °C and then harvested. For the cytotoxicity evaluation, the cells treated with the test substances were used, while untreated HepG2 cells served as a control group. The cells were seeded in a 96-well plate at a density of 1 × 10^4 cells per well and incubated for 24 h. All tested compounds were dissolved in DMSO to prepare 10 mM stock solutions and diluted to the desired concentration just before the cell treatment. Cytotoxicity of all studied derivatives was screened at 10 μM concentration, and all samples were measured in triplicates. Positive and negative controls were also included. Plates were incubated for 24 h in a humidified atmosphere containing 5% CO2 at 37 °C. After the incubation, a solution of thiazolyl blue tetrazolium bromide (Sigma-Aldrich, St. Louis, MO, USA) in RPMI 1640 medium without phenol red (BioTech, Prague, Czech Republic) was added and incubated for 3 h in a humidified atmosphere containing 5% CO2 at 37 °C. Afterwards, formazan crystals were dissolved in DMSO, and the absorbance of samples was recorded at 570 nm (Synergy Neo2 Multi-Mode Reader NEO2SMALPHAB; BioTek, Winooski, VT, USA).

HepG2 cells = assay: Cytotoxicity assessment in vitro (MTT assay); assay type: cell-based; conditions: human, 24 h, 10 µM
Procedure: as §1

[4] = Huh-7, mean, unit (Table 1: µM), read-out: Antiplasmodial activity - Ø IC50
[5] = Huh-7, replicate 1, unit (Table 1: µM), read-out: Antiplasmodial activity - IC50 determination, 1. measurement
[6] = Huh-7, replicate 2, unit (Table 1: µM), read-out: Antiplasmodial activity - IC50 determination, 2. measurement
[7] = Huh-7, replicate 3, unit (Table 1: µM), read-out: Antiplasmodial activity - IC50 determination, 3. measurement
[8] = hepatic stage, Huh-7 cells, parasite load 48 h post-infection, read-out: IC50 P. berghei

Row | SMILES | activity at 1 µM [1] | activity at 10 µM [1] | IC50 [1, 4] | IC50 [1, 5] | IC50 [1, 6] | IC50 [1, 7] | IC50 [1, 8] | CELL CONFLUENCY Ø screening (Huh-7 cell line; 1 µM) | CELL CONFLUENCY Ø screening (Huh-7 cell line; 10 µM) | Ø screening, blood stage parasite load ([2]; at 10 nM) | Ø screening, blood stage parasite load ([2]; at 500 nM) | Ø screening, blood stage parasite load ([2]; at 100 nm) | viability at 24 h, 10 µM [3] | 1. screening of cytotoxic potential, HepG2 cell line (HepG2 cells) | 2. screening of cytotoxic potential, HepG2 cell line (HepG2 cells) | 3. screening of cytotoxic potential, HepG2 cell line (HepG2 cells) | Ø screening, HepG2 (sheet Graphs) (HepG2 cells)
1 | CCCCC(=O)O[C@@H]1CN2Cc3c(cc4c(c3OC)OCO4)[C@@]13C=C[C@H](OC)C[C@@H]23 [28d, 11-O-Pentanoylambelline] | 93.9% | 25.2% | 4.08 µM | 5.65 µM | 2.14 µM | 4.44 µM | 4.08 ± 1.78 µM | 95.31 | 93.14 | 6.99 | 6.78 | 7.043 | 71 ± 7% | 73.78 | 63.13 | 76.88 | 71.26
2 | CCC(=O)O[C@@H]1CN2Cc3c(cc4c(c3OC)OCO4)[C@@]13C=C[C@H](OC)C[C@@H]23 [28b, 11-O-Propionylambelline] | 77.6% | 64.5% | – | – | – | – | > 10 µM | 98.41 | 102.4 | 8.397 | 7.243 | 7.813 | 58 ± 4% | 62.58 | 57.25 | 55.25 | 58.36
3 | COc1c2c(cc3c1OCO3)[C@]13C=C[C@H](OC)C[C@H]1N(C2)C[C@H]3OC(=O)c1ccc(C)c([N+](=O)[O-])c1 [28r, 11-O-(4-Methyl-3-nitrobenzoyl)ambelline] | 22.2% | 1.01% | 0.41 µM | 0.358 µM | 0.408 µM | 0.465 µM | 0.41 ± 0.054 µM | 94.75 | 52.08 | 8.177 | 7.467 | 7.743 | 65 ± 8% | 69.43 | 55.1 | 69.8 | 64.78
4 | COc1c2c(cc3c1OCO3)[C@]13C=C[C@H](OC)C[C@H]1N(C2)C[C@H]3OC(=O)c1ccc(C)cc1 [28g, 11-O-(4-Methylbenzoyl)ambelline] | 23.1% | 0.21% | 0.402 µM | 0.345 µM | 0.46 µM | – | 0.402 ± 0.081 µM | 89.36 | 93.96 | 5.187 | 4.26 | 4.963 | 50 ± 6% | 50.18 | 56.25 | 43.46 | 49.96
